For one assay, the target named is ANKK1 (human) (UniProt Q8NFD2). Kind of assay: KINOMEscan competition binding. The conditions noted are these: compound 10.0 µM.
In the next assay the target is PIM1 (human) (UniProt P11309). Description: SelectScreen, TR FRET. On the technique in general: TR-FRET usually uses a lanthanide donor and a delayed reading to cut background.
A further assay concerns the target PIM2 (human) (UniProt Q9P1W9). Kind of assay: SelectScreen, TR FRET.
The target of a further assay is CHEK1 (human) (UniProt O14757). Kind of assay: KINOMEscan competition binding. The conditions noted are these: compound 10.0 µM.
A further assay deals with HIPK1 (human) (UniProt Q86Z02). Description: SelectScreen, TR FRET.
Another assay addresses HIPK2 (human) (UniProt Q9H2X6). Description: SelectScreen, TR FRET.
In another assay the target is CDC42BPG (human) (UniProt Q6DT37). Kind of assay: KINOMEscan competition binding. The settings on record: compound 10.0 µM.
A further assay has as its target CDK17 (human) (UniProt Q00537). Description: KINOMEscan competition binding. The conditions noted are these: compound 10.0 µM.
For a further assay, the target named is FGFR3 (human) (UniProt P22607). Kind of assay: KINOMEscan competition binding. The conditions noted are these: compound 10.0 µM.
The target in assay [1] is JAK2 JH1 catalytic (human) (UniProt O60674). Description: KINOMEscan competition binding. The settings on record: compound 10.0 µM.
In the next assay the target is MERTK (human) (UniProt Q12866). Description: KINOMEscan competition binding. The settings on record: compound 10.0 µM.
The target in a further assay is PIK3CB (human) (UniProt P42338). Description: KINOMEscan competition binding. The conditions noted are these: compound 10.0 µM.
A further assay has as its target PLK1 (human) (UniProt P53350). Kind of assay: KINOMEscan competition binding. The conditions noted are these: compound 10.0 µM.
For the next assay, the target named is STK4 (human) (UniProt Q13043). Description: KINOMEscan competition binding. The conditions noted are these: compound 10.0 µM.
In a further assay the target is TIE1 (human) (UniProt P35590). Kind of assay: KINOMEscan competition binding. The conditions noted are these: compound 10.0 µM.
A further assay addresses TNNI3K (human) (UniProt Q59H18). Kind of assay: KINOMEscan competition binding. The conditions noted are these: compound 10.0 µM.
A further assay concerns the target ZAP70 (human) (UniProt P43403). Description: KINOMEscan competition binding. The settings on record: compound 10.0 µM.
The next assay deals with BRAF (human) (UniProt P15056). Kind of assay: KINOMEscan competition binding. The settings on record: compound 10.0 µM.
Assay [2] has as its system BRAF (human), P15056 [V600E]. Kind of assay: KINOMEscan competition binding. The conditions noted are these: compound 10.0 µM.

The term IC50 denotes the concentration at which inhibition is half-maximal. High values mean a need for much substance, low ones inhibition by little substance.

Chain of CHEK1 (human) (O14757 whole entry, looked up): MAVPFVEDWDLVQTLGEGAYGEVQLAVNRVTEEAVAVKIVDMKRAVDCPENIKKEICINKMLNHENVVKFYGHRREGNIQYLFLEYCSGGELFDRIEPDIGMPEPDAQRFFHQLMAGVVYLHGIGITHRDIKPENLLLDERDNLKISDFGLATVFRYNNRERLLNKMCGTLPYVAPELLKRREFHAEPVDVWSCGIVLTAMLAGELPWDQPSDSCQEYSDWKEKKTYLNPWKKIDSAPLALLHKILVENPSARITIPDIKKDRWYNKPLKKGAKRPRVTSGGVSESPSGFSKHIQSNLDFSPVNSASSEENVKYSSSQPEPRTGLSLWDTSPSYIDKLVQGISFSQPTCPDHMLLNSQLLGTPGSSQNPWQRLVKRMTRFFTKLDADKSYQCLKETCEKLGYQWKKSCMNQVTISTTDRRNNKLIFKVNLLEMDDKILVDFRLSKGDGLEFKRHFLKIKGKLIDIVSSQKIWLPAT
Chain of TIE1 (human) (P35590 whole entry, looked up): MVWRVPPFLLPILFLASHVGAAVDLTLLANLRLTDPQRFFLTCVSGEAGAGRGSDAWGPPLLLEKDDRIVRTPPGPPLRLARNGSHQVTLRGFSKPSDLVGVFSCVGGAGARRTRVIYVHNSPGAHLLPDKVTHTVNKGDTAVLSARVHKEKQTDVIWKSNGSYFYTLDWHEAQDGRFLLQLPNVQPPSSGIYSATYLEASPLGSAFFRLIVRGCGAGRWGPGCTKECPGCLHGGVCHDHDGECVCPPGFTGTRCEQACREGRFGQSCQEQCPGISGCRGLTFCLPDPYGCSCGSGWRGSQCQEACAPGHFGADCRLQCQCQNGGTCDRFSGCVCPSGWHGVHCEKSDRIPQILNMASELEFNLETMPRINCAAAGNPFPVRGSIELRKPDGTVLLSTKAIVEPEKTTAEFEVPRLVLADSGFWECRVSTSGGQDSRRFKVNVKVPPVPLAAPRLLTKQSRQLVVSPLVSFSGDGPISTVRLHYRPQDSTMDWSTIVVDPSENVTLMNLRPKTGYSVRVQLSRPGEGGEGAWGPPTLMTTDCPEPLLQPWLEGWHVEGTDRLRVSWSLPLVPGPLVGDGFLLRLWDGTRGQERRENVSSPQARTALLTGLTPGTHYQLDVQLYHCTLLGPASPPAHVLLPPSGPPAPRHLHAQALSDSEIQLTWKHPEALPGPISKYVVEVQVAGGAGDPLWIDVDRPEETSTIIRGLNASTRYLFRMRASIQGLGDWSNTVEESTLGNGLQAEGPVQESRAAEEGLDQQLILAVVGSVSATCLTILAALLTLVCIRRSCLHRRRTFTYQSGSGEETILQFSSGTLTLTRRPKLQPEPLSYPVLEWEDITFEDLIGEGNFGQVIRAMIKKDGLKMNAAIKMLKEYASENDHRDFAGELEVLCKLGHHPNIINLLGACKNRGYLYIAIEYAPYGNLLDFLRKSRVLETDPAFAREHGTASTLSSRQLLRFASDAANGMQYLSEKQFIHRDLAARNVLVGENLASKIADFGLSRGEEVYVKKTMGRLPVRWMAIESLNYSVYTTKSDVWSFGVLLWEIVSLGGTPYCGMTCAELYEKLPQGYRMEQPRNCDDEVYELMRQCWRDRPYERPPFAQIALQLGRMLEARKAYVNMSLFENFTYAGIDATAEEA
Chain of ZAP70 (human) (P43403 whole entry, looked up): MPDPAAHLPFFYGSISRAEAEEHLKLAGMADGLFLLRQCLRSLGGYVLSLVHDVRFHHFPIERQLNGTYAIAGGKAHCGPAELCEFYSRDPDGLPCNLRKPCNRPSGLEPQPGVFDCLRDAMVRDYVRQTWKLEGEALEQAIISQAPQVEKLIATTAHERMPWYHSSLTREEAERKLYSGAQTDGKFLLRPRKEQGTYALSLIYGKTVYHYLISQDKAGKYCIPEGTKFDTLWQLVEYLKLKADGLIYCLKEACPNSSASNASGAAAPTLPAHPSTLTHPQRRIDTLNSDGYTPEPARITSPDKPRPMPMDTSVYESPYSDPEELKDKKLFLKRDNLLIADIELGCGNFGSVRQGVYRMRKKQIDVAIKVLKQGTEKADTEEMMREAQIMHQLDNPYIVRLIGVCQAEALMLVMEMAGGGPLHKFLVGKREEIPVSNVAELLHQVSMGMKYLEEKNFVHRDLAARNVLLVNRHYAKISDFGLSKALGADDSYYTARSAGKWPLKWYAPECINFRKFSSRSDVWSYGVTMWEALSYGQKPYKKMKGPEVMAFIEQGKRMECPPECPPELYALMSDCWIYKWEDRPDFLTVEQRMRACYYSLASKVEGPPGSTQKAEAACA
Chain of PLK1 (human) (P53350 whole entry, looked up): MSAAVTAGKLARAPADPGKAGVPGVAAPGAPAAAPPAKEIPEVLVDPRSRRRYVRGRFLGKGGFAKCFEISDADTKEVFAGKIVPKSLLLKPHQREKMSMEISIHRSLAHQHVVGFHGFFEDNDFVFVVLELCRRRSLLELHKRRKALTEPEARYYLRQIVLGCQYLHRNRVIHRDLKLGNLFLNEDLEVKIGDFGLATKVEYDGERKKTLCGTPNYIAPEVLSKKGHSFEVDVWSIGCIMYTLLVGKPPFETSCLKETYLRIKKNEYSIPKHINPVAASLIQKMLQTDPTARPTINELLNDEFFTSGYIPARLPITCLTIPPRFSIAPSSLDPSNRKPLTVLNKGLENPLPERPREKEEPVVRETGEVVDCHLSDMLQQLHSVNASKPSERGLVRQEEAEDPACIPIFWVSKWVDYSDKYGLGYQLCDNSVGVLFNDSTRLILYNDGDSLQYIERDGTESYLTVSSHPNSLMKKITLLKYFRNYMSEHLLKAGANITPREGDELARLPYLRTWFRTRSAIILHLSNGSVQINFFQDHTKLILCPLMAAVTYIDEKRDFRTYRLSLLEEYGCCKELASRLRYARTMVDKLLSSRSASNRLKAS
Chain of CDK17 (human) (Q00537 whole entry, looked up): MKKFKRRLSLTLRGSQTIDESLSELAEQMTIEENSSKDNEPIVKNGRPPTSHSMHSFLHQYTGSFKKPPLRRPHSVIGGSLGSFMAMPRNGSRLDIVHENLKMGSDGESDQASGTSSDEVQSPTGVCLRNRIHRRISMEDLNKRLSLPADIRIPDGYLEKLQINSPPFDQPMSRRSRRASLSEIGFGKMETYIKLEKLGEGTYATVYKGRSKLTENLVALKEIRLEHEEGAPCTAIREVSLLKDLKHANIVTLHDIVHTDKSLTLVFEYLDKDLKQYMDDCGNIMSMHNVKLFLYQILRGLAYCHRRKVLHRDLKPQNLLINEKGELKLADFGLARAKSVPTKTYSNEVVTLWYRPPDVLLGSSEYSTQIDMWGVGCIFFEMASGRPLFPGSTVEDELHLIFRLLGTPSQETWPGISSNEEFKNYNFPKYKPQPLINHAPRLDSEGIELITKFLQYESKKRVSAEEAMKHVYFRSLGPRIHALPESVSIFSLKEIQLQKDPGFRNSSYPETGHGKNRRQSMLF
Chain of CDC42BPG (human) (Q6DT37 whole entry, looked up): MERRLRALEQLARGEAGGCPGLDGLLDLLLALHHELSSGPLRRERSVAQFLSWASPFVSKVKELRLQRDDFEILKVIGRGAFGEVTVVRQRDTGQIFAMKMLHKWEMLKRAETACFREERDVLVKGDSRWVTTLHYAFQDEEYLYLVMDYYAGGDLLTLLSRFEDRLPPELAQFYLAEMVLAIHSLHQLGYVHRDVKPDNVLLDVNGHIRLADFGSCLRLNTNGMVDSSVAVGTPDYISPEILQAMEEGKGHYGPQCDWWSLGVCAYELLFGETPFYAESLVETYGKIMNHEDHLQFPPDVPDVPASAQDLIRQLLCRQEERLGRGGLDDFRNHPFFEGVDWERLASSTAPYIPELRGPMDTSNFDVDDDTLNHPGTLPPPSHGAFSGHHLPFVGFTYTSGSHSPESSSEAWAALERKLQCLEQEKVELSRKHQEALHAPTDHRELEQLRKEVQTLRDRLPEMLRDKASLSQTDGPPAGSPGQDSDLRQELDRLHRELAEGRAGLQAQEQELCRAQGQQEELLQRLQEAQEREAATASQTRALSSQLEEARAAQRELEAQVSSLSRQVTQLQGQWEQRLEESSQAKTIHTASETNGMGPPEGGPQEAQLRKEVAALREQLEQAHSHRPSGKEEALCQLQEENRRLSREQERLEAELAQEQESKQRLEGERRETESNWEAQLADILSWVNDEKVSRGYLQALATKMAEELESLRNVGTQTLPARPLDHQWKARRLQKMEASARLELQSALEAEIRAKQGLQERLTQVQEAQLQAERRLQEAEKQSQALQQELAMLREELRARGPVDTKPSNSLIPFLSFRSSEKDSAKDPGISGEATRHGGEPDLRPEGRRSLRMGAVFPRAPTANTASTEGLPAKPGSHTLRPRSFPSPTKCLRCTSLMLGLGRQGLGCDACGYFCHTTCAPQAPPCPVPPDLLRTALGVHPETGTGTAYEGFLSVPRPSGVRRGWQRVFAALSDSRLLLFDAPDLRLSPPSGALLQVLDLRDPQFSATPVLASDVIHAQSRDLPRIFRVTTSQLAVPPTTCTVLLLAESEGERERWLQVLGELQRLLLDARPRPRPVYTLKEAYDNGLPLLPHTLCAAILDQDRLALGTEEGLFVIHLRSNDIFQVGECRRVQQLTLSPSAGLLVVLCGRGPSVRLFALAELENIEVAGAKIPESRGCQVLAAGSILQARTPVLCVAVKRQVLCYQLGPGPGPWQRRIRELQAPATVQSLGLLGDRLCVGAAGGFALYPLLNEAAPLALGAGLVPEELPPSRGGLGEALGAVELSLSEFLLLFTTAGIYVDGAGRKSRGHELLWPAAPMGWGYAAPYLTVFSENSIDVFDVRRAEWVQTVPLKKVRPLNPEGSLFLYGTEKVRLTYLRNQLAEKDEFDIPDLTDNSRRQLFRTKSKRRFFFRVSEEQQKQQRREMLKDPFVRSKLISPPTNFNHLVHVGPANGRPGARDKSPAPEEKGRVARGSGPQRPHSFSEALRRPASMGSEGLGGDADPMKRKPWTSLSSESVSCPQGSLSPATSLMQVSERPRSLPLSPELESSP

On to `O=C1NC(=S)S/C1=C\c1ccc(-c2cncc3ccccc23)o1`, for which, on ANKK1 (human), the kinase still bound, per cent of control was 34%. The IC50 amounted to 284 nM against PIM1 (human) and 92 nM against PIM2 (human).
On CHEK1 (human), `CS(=O)(=O)Nc1ccc(-c2cc(/C=C3\SC(=N)NC3=O)c[nH]c2=O)cc1` had a kinase still bound, per cent of control of 32%. Also, the IC50 against HIPK1 (human) worked out at 1160 nM; against HIPK2 (human) it was 300 nM.
For the molecule `CN1CCN(c2ccc(C(=O)Nc3ncc4c(n3)N(C)c3ccccc3C(=O)N4C)cc2)CC1`, the kinase still bound, per cent of control was determined as 28% on ANKK1 (human); 100% on CDC42BPG (human); 100% at CDK17 (human); 100% on CHEK1 (human); 100% on FGFR3 (human); 6.2% in assay [1]. Besides, the kinase still bound, per cent of control at MERTK (human) amounted to 100%; at PIK3CB (human), 100%; at PLK1 (human), 100%; at STK4 (human), 93%; on TIE1 (human) it was 100%; on TNNI3K (human), 100%. In addition, the kinase still bound, per cent of control at ZAP70 (human) was found to be 100%.
With `N=C1NC(=O)/C(=C/c2ccc(-c3ccc(C(N)=O)cc3O)o2)S1`, the kinase still bound, per cent of control at CDK17 (human) is 28%; on ZAP70 (human), 25%. For the same molecule, the results for the IC50 against PIM1 (human) and at PIM2 (human) were 32 nM and 57 nM, respectively.
On to `COc1cc(N2CCN(C)CC2)ccc1Nc1ncc2c(n1)N(C)c1ccccc1N(C)C2=O`, for which the kinase still bound, per cent of control turned out to be 91% on ANKK1 (human); 100% at CDC42BPG (human); 100% at CDK17 (human); 100% at CHEK1 (human); 100% at FGFR3 (human); 100% in assay [1]. Moreover, the kinase still bound, per cent of control turned out to be 100% at MERTK (human); 83% at PIK3CB (human); 100% at PLK1 (human); 100% at STK4 (human); 70% at TIE1 (human); 100% at TNNI3K (human). The molecule further had a kinase still bound, per cent of control at ZAP70 (human) of 100%.
Take `Nc1cccc(-c2cc(/C=C3\SC(=O)NC3=O)c[nH]c2=O)c1`: the kinase still bound, per cent of control in [1] turned out to be 6.6%; on PLK1 (human), 1.8%. Besides, the figures for the IC50 on HIPK1 (human) and against HIPK2 (human) were 244 nM and 166 nM, respectively.
Take `N=C1NC(=O)/C(=C/c2ccc(-c3ccc(F)cc3O)o2)S1`: the IC50 on PIM1 (human) worked out at 110 nM; at PIM2 (human), 96 nM.
For the molecule `CS(=O)(=O)Nc1ccc(-c2cncc(/C=C3\SC(=N)NC3=O)c2)cc1`, the values for the kinase still bound, per cent of control (on BRAF (human); in [2]) were 32% and 34%, respectively.
`CN1C(=O)[C@H]2CCC[C@H]2N(C2CCCC2)c2nc(Nc3ccc(C(N)=O)cc3)ncc21`: the kinase still bound, per cent of control amounted to 26% on ANKK1 (human), 6.8% on MERTK (human) and 0.65% on PLK1 (human).
For the molecule `N=C1NC(=O)/C(=C/c2ccc(-c3ccccc3O)o2)S1`, the IC50 against PIM1 (human) was 94 nM; at PIM2 (human), 114 nM.
Consider `COc1cc(N2CCC(O)CC2)ccc1Nc1ncc2c(n1)N1CCc3cccc(c31)C(=O)N2C`, for which the kinase still bound, per cent of control on ANKK1 (human) was determined as 100%; at CDC42BPG (human), 100%; on CDK17 (human) it was 94%; on CHEK1 (human) it was 100%; on FGFR3 (human), 100%; in assay [1], 69%. The kinase still bound, per cent of control on MERTK (human) stood at 100%; on PIK3CB (human), 92%; on PLK1 (human), 0.2%; at STK4 (human) it was 78%; on TIE1 (human) it was 94%; on TNNI3K (human), 100%. Besides, the kinase still bound, per cent of control at ZAP70 (human) is 65%.
On PLK1 (human), `CSC1=NC(=O)/C(=C/c2c[nH]c(=O)c(-c3ccc(NS(C)(=O)=O)cc3)c2)S1` returned a kinase still bound, per cent of control of 17%. The IC50 at HIPK1 (human) came out at 1960 nM; against HIPK2 (human) it was 618 nM.
As to `N=C1NC(=O)/C(=C/c2c[nH]c(=O)c(-c3ccc(N4CCNCC4)nc3)c2)S1`, the kinase still bound, per cent of control on CHEK1 (human) came out at 3.4%. In addition, the figures for the IC50 at HIPK1 (human) and at HIPK2 (human) were 507 nM and 289 nM, respectively.
Turning to `COc1cc(N2CCN(C)CC2)ccc1Nc1ncc2c(n1)Nc1ccccc1NC2=O`, the kinase still bound, per cent of control at ANKK1 (human) stood at 82%; at CDC42BPG (human), 100%; at CDK17 (human), 93%; on CHEK1 (human) it was 75%; on FGFR3 (human) it was 97%; in [1], 85%. The kinase still bound, per cent of control at MERTK (human) is 80%; at PIK3CB (human), 88%; at PLK1 (human) it was 99%; on STK4 (human), 100%; on TIE1 (human), 24%; at TNNI3K (human) it was 87%. This molecule also showed a kinase still bound, per cent of control at ZAP70 (human) of 100%.
Regarding `CN1C(=O)c2ccccc2N(C)c2nc(NS(=O)(=O)c3ccc(N)cc3)ncc21`, the kinase still bound, per cent of control at ANKK1 (human) was 32%; on CDC42BPG (human) it was 100%; at CDK17 (human) it was 100%; on CHEK1 (human), 98%; at FGFR3 (human) it was 100%; in assay [1], 42%. In addition, the kinase still bound, per cent of control on MERTK (human) stood at 82%; on PIK3CB (human) it was 100%; at PLK1 (human), 100%; on STK4 (human) it was 71%; on TIE1 (human), 100%; on TNNI3K (human), 100%. In addition, at ZAP70 (human), the kinase still bound, per cent of control was 100%.
For `N=C1NC(=O)/C(=C/c2ccc(-c3csc4ccccc34)o2)S1`, the IC50 is 3270 nM against PIM1 (human) and 628 nM against PIM2 (human).
Turning to `CN1C(=O)c2ccccc2N(C)c2nc(Nc3ccc(N4CCC(O)CC4)cc3)ncc21`, the kinase still bound, per cent of control on ANKK1 (human) worked out at 100%; at BRAF (human), 94%; in assay [2], 100%; at CDC42BPG (human) it was 100%; at CDK17 (human), 90%; on CHEK1 (human), 76%. In addition, the kinase still bound, per cent of control on FGFR3 (human) was found to be 62%; in assay [1], 1.3%; on MERTK (human), 100%; at PIK3CB (human), 94%; on PLK1 (human) it was 50%; on STK4 (human), 80%. Also, the kinase still bound, per cent of control turned out to be 59% on TIE1 (human), 100% on TNNI3K (human) and 87% at ZAP70 (human).
As for `COc1cc(N2CCN(C)CC2)ccc1Nc1ncc2c(n1)N(C)c1sccc1C(=O)N2C`, the kinase still bound, per cent of control turned out to be 25% on ANKK1 (human); 91% at CDC42BPG (human); 85% on CDK17 (human); 60% at CHEK1 (human); 100% at FGFR3 (human); 34% in assay [1]. The kinase still bound, per cent of control at MERTK (human) turned out to be 100%; on PIK3CB (human) it was 90%; at PLK1 (human) it was 2.5%; on STK4 (human) it was 100%; on TIE1 (human), 93%; at TNNI3K (human), 84%. On ZAP70 (human), the kinase still bound, per cent of control was 74%.

Source of the values: the kinase profiling compilation of Christmann-Franck et al. (2016).
